Data as given in paper PMC9873282, “Design, synthesis and evaluation of quinoline-O-carbamate derivatives as multifunctional agents for the treatment of Alzheimer’s disease” (Journal of Enzyme Inhibition and Medicinal Chemistry, 2023).

Tests used:
eqBuChE = molecular target: T1, eqBuChE (Equus caballus, UniProt P81908); test: biochemical; design: species or system equine
T1 construct: eqBuChE, from equine serum; purchased Sigma Aldrich; host or cells: equine serum (natural source)
Description: (§1) The inhibitory activities of the synthesised compounds against eeAChE (from electric eel) and eqBuChE (from equine serum) were tested by the modified Ellman’s method[26]^,[27]. […] The determination of AChE and BuChE inhibitory potency of the synthesised compounds were evaluated by Ellman assay, the detailed procedure referred to our previous work[26]^,[27].

AChE = AChE activity in AlCl3-induced zebrafish AD model tissue; format: in vivo
[1] = test system: AlCl3-induced zebrafish AD model; test: Behavioural assay in AlCl3-induced zebrafish AD model; format: in vivo
ACh = ACh level in AlCl3-induced zebrafish AD model tissue; format: in vivo
Source text: . After the behavioural experiments, the 168hpf zebrafish were killed and ground, the tissue were used to test the AChE activity and ACh levels. […] .

[2] = Rat liver microsomes stability; conditions: after 60 min incubation
Description: (§4) • 2.The stability of 3f was performed in rat liver microsomes. The rat liver microsomes was purchased from Dalian Meilun Biotechnology Co., Ltd, DaLian, China. […] Solution B (25 mL) contained G-6-P-DH (1000 U), Na-Citrate2 (200 mg), and H2O was used as a solvent. NADPH solution (1 mM) was composed by solution A and solution B (v/v = 5:1). […] The reaction was started by the addition of NADPH. The total mixture (200 µL) was incubated at 37 °C. Cold methanol (600 µL) was added at 0, 5, 15, 20, 30, 45 and 60 min, respectively, to stop the reaction. Samples were centrifuged at 13000 rpm for 10 min at 4 °C, and 100 µL supernatant was removed and analysed by UPLC-MS/MS. The stability results were presented as % remaining vs. time. The experiments were conducted in triplicate. • 3.The stability of 3f was performed in rat plasma. […] The supernatant was dried and redissolved in 100 µL methanol. After centrifugation, the supernatant was analysed by UPLC-MS/MS. The stability data were presented as remaining percentage vs time.

Rat plasma stability = conditions: after 3 h incubation
Description: as §4

hBuChE = molecular target: T2, hBuChE (Homo sapiens, UniProt P06276); test: hBuChE reversibility of inhibition (recovery after dilution); format: biochemical
T2 construct: hBuChE, human serum BuChE; purchased Sigma Aldrich; host or cells: human serum (natural source)
T2 sequence (P06276 29-602): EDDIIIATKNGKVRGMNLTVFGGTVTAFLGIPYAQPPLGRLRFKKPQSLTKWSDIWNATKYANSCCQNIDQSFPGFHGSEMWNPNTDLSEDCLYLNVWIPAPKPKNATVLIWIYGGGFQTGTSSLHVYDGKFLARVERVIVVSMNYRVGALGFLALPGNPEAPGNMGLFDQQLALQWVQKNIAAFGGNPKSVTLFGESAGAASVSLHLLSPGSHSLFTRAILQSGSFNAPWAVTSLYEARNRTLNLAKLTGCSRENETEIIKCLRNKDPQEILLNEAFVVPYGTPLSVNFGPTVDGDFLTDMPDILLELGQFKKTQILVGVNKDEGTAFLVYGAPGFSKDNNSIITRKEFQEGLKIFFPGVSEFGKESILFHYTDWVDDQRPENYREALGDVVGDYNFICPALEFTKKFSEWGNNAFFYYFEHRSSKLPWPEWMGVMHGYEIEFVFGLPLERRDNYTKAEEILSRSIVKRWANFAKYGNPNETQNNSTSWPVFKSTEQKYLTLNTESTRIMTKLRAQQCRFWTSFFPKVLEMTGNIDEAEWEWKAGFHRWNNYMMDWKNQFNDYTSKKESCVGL

BV-2 cells = test: Cytotoxicity on BV-2 cells (CCK8 assay); format: cell-based; conditions: compounds at 2 µM
Description: (§2) Firstly, the cytotoxicity of compounds 3a, 3c, 3e, 3f, 3k, 3m and 3n were tested using CCK8 assay.
BV-2 cells were cultured in DMEM containing 10% foetal bovine serum, 100 U/mL penicillin, 100 U/mL streptomycin, and 1% nonessential amino acid at 37 °C with 5% CO2.
BV-2 cells in logarithmic growth stage were digested and centrifuged, and then resuspended in DMEM medium containing 1% penicillin-streptomycin and 10% foetal bovine serum. The cells was adjusted to 1.2 × 10^4 cells/well, and then seeded evenly in 96-well cell culture plates. The cells were incubated for 36 h at 37 °C with 5% CO2. After incubation, the cells were added to different concentrations (10 and 2 µM) of tested compounds, and incubated for 24 h at 37 °C with 5% CO2. Then, 10 µL CCK-8 solution was added to each well, and incubated for another 1 h at 37 °C with 5% CO2. The OD values were tested at […]. The cell viability (%) = {(ODdrug−ODblank)}/{(ODcontrol−ODblank)} × 100%.

IL-1β = IL-1β production in LPS-stimulated BV-2 cells (ELISA); format: cell-based; conditions: 1 µg/mL LPS 24 h
Description: as §2
(§3) BV-2 cells (2 × 10^5 cells/well) were seeded in a 24-well cell culture plates. The cells were divided into blank control group, model group (1 µg/mL LPS), LPS + 2 µM compound group, LPS + 1 µM compound group. Each drug group was pre-treated with corresponding concentration of drug solution for 8 h. After 8 h, the culture medium was aspirated out. Except for the blank control group, which was added with DMEM medium, the other groups were stimulated with 1 µg/mL LPS for 24 h. Then cell supernatant was aspirated and centrifuged at 3000 rpm for 3 min. The content of NO in cell culture supernatant was determined by Griess method, and the levels of cytokines IL-6 and IL-1β in cell culture supernatant were determined by IL-6 ELISA kit and IL-1β ELISA kit, respectively.

zebrafish embryos = test: Acute toxicity in zebrafish embryos
Description: The survival rate of zebrafish embryos was observed and recorded every 24h, and observation was stopped when zebrafish embryos developed to 120 hpf. […] When the culture was to be 120hpf, photographic observations were made under a body microscope (RM2235; Leica). And the body length, pericardial oedema, swim bladder area, liver area, and liver fluorescence intensity of zebrafish were measured by ImageJ software. • Zebrafish experimental grouping. […] All the data were expressed as mean ± SEM and statistical analysis were performed using GraphPad Prism software. The significance of differences were determined using one-way ANOVA. Data were expressed as mean ± standard deviation, and *p < 0.05 indicates a significant difference.

eeAChE = molecular target: T3, eeAChE (Electrophorus electricus, UniProt O42275); test: biochemical; design: species or system electric eel; conditions: AChE from electric eel; read-out: IC50 ± SD eeAChE
T3 construct: eeAChE, from the electric eel; purchased Sigma Aldrich; host or cells: electric eel (natural source)
T3 sequence (O42275 24-633): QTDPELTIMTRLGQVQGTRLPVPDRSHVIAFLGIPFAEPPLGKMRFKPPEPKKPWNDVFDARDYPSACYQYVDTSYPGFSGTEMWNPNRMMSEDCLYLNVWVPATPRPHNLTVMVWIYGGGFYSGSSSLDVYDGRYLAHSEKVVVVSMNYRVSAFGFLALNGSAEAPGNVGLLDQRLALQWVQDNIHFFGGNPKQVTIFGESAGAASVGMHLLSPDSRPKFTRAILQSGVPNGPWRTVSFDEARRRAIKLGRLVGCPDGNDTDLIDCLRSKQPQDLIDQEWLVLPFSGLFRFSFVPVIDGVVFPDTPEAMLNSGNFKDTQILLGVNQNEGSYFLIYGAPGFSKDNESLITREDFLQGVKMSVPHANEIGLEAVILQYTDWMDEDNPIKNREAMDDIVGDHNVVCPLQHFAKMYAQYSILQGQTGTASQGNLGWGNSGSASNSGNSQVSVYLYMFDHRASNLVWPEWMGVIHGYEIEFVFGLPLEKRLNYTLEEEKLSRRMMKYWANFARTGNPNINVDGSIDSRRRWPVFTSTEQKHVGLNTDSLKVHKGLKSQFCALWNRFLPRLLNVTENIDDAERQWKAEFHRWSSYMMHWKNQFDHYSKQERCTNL
Description: as §1

NO = NO release in LPS-stimulated BV-2 cells (Griess method); format: cell-based; conditions: 1 µg/mL LPS 24 h
Description: as §2, §3

[3] = alternating dark light stimuli, 0.08 µM
[4] = alternating dark light stimuli, 0.16 µM
[5] = alternating dark light stimuli, 0.32 µM

T1 sequence (P81908 whole entry): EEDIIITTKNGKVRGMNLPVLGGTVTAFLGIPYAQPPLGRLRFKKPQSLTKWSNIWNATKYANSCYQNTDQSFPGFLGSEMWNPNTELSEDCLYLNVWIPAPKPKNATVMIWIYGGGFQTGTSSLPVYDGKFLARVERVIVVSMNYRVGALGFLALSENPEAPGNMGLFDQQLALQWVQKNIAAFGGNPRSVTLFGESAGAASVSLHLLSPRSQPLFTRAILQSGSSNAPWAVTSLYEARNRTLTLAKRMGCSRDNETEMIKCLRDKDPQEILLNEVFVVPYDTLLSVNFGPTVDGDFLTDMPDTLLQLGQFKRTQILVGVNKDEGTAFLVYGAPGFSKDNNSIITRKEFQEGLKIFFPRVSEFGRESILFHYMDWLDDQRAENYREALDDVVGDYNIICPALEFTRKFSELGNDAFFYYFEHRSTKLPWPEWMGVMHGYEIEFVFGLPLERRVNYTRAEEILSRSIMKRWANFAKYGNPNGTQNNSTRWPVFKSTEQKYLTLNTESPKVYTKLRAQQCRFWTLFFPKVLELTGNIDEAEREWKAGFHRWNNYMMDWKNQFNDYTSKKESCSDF

SMILES: CCN(CC)C(=O)Oc1cccc2ncccc12 [Compound 3f, Quinolin-5-yl diethylcarbamate]
- IC50 (eqBuChE; BuChE from equine serum, read-out: IC50 ± SD eqBuChE): 810 ± 60 nM
- SI = IC50 (AChE)/IC50 (BuChE) (eqBuChE; eeAChE/eqBuChE): 1.6
- AChE activity (AChE; 0.08 µM): 98095.7 nmol/min/g
- AChE activity (AChE; 0.16 µM): 64663.2 nmol/min/g
- AChE activity (AChE; 0.32 µM): 102433.6 nmol/min/g
- total velocity ([1]; 0.16 µM, compared with donepezil): could improve AlCl3-induced zebrafish AD model
- distance moved [1, 3]: 1029.2 cm
- velocity [1, 3]: 17.5 cm/min
- distance moved [1, 4]: 1241.5 cm
- velocity [1, 4]: 22.3 cm/min
- distance moved [1, 5]: 1022.8 cm
- velocity [1, 5]: 17.0 cm/min
- distance moved ([1]; dark environment, 0.08 µM): 607.3 cm
- velocity ([1]; dark environment, 0.08 µM): 21.3 cm/min
- distance moved ([1]; dark environment, 0.16 µM): 709.4 cm
- velocity ([1]; dark environment, 0.16 µM): 24.7 cm/min
- distance moved ([1]; dark environment, 0.32 µM): 521.7 cm
- velocity ([1]; dark environment, 0.32 µM): 17.3 cm/min
- optimal dose ([1]; dyskinesia and reaction capacity, ACh levels): 0.16 µM
- velocity ([1]; light condition, 0.08 µM): 14.7 cm/min
- velocity ([1]; light condition, 0.16 µM): 19.3 cm/min
- velocity ([1]; light condition, 0.32 µM): 17.6 cm/min
- ACh activity (level) (ACh; 0.08 µM): 16.4 pmol/L
- ACh activity (level) (ACh; 0.16 µM): 18.4 pmol/L
- ACh activity (level) (ACh; 0.32 µM): 15.4 pmol/L
- remaining amount in rat liver microsomes [2]: 104.4%
- remaining amount in rat plasma (Rat plasma stability): 95.5%
- reversibility of hBuChE inhibition (hBuChE): reversible hBuChE inhibitor
- hBuChE activity (% control) (hBuChE; 0.1*IC50, diluted): 53.6 % control
- hBuChE activity restored (hBuChE; 0.1 × IC50, 120 min): 70.7%
- hBuChE activity restored (hBuChE; 0.1 × IC50, 240 min): 95.6%
- hBuChE activity (% control) (hBuChE; 1*IC50, diluted): 51.4 % control
- hBuChE activity (% control) (hBuChE; 1*IC50, undiluted): 48.8 % control
- cell viability of BV-2 cells (BV-2 cells): did not show obvious change
- levels of IL-1β compared with model group (IL-1β): significantly decreased
- percentage survival (zebrafish embryos; 40.9 µM, 4 hpf): 100%
- survival (zebrafish embryos; 40.9 µM, 24 hpf): all the zebrafish were dead
- liver florescence area and median fluorescence intensity (zebrafish embryos; 0.65, 1.3 and 2.6 µM): did not produce obvious change
- pericardial oedema/body length (zebrafish embryos; at five concentrations of 3f, 120 hpf): did not produce significant change
- maximum non-lethal concentration (MNLC) (zebrafish embryos; zebrafish, in vivo): 20.5 µM
- IC50 (eeAChE): 1300 ± 20 nM
- release volume of NO (NO): significantly decreased
